Assay results: patent US20160264925A1, “Reagents for Lysis of Bacterial Cells” (Roche Diagnostics Operations, Inc., priority 2009, published 2016)

Experiments:
[1] = tested on: Escherichia coli BMTU 3294; experiment: Lysis of microbial cells in suspension, microscopic assessment (SYTO 9 staining): Gram-negative; format: cell-based; details: for lysis of Gram-negative cell walls, summary in words: reagent and concentration as in Tables 1 and 2 (Example 4)
Protocol: (§1) Cell suspensions containing between about 10^7 and about 10^8 cells/ml were prepared.
(§2) The LIVE/DEAD® BacLight Bacterial Viability Kits supplied by Invitrogen utilize mixtures of the SYTO® 9 green-fluorescent nucleic acid stain (Invitrogen) and the red-fluorescent nucleic acid stain, propidium iodide. These stains differ both in their spectral characteristics and in their ability to penetrate healthy bacterial cells. When used alone, the SYTO® 9 stain generally labels all bacteria in a population—those with intact membranes and those with damaged membranes. In contrast, propidium iodide penetrates only bacteria with damaged membranes, causing a reduction in the SYTO® 9 stain fluorescence when both dyes are present.
(§3) Each mixture was incubated for 15 min at 56° C.
(§4) For the lysis experiments, all possible combinations of lysis buffers L1.1 to L11.1 with cell suspensions (A), (B), and (C) were examined.
(§5) An incubated cell suspension with bacteria was scored as a “positive” lysate if in the incubated mixture SYTO® 9 stainable morphological structures corresponding to the respective bacterial cells were not detectable. Otherwise, when SYTO® 9 stainable morphological structures were still present, the incubated cell suspension was scored as “negative”. In an analogous way, a cell suspension with yeast cells was scored, however based on Calcofluor™ White M2R staining.
(§6) In each experiment a direct comparison was made using the fluorescent label on an untreated but similarly diluted cell suspension as a reference. In order to exclude any influence of a compound in the lysis reagents on fluorescence, any presence or absence of morphological structures corresponding to the respective microbial cells was verified using light microscopy.

[2] = tested on: Staphylococcus carnosus BMTU 7329; experiment: Lysis of microbial cells in suspension, microscopic assessment (SYTO 9 staining): Gram-positive; format: cell-based; details: for lysis of Gram-positive cell walls, summary in words: reagent and concentration as in Tables 1 and 2 (Example 4)
Protocol: as §1, §2, §3, §4, §5, §6

[3] = about 2.25 M in the mixture with the bacterial suspension

Compound | lysis of Gram-negative cell walls, summary in words [1] | lysis of Gram-positive cell walls, summary in words [2] | destruction of Gram-negative cell walls ([1]; 247.5 mM (or lower)) | destruction of Gram-positive cell walls ([2]; 247.5 mM (or lower)) | destruction of Gram-negative cell walls ([1]; 375 mM in the mixture) | destruction of Gram-negative cell walls [1, 3] | destruction of Gram-positive cell walls ([2]; 375 mM in the mixture) | destruction of Gram-positive cell walls [2, 3] | further results
1-butyl-3-methyl-imidazolium-2(2-methoxyethoxy)ethylsulfate [ECOENG™41M] | destroy the cell walls of both Gram-positive and Gram-negative cells | destroy the cell walls of both Gram-positive and Gram-negative cells | – | – | – | – | – | – | concentration required to destroy Gram-negative cell walls together with Gram-positive, relative to BMIM-SCN (about 2.25 M in the mixture) ([1]; lysis reagent L2.1): a quarter of this concentration; concentration required to destroy Gram-positive cell walls, relative to BMIM-SCN (about 2.25 M in the mixture) ([2]; lysis reagent L2.1): a quarter of this concentration
1-butyl-3-methyl-imidazolium-octylsulfate | – | – | falls short of destroying bacterial cell walls | falls short of destroying bacterial cell walls | – | – | – | – | destruction of Gram-negative cell walls ([1]; higher than 247.5 mM and up to 375 mM): capable of destroying the cell walls of Gram-negative bacteria; destruction of Gram-positive cell walls ([2]; any concentration tested): no concentration was found
1-butyl-3-methyl-imidazolium-thiocyanate [BMIM-SCN] | destroy the cell walls of both Gram-positive and Gram-negative cells | destroy the cell walls of both Gram-positive and Gram-negative cells | – | – | falls short of destroying bacterial cell walls | destroyed | falls short of destroying bacterial cell walls | destroyed | destruction of Gram-negative cell walls ([1]; about 562.5 mM in the mixture): lysed
N#CS.N=C(N)N [GuaSCN, Guanidine thiocyanate, reference compound] | – | – | – | – | ineffective | destroyed | ineffective | destroyed | –
Cc1ccc(S(=O)(=O)[O-])cc1.Cc1ccc(S(=O)(=O)[O-])cc1.Cn1cc[n+](CCCC[n+]2ccn(C)c2)c1 [MITS, 1-methyl-1-[4-(3-methyl-3H-imidazol-1-ium)-but-1-yl]-3H-imidazolium-di(toluylsulfate)] | – | – | neither Gram-negative nor Gram-positive cell walls were destroyed | neither Gram-negative nor Gram-positive cell walls were destroyed | – | – | – | – | destruction of Gram-positive cell walls ([2]; 247.5 mM increased by about 50% or more): destruction of Gram-positive cell walls
